Data taken from patent publication US7767685B2, “Adenosine A2B receptor antagonists” (King Pharmaceuticals Research and Development, Inc., priority 2006, dated 2010).

Key:
[1] = biological target: T1, human A2B adenosine receptors (Homo sapiens, UniProt P29275); test: Displacement of [3H]MRE2029F20 binding at human A2B adenosine receptors; settings: [3H]MRE2029F20 displacement, human A2B receptors (footnote: HEK293 cells; method: CHO cells), n = 3-6; geometric mean (95% confidence limits); read-out: Ki hA2B
T1 construct: expressed in transfected cells; host or cells: CHO cells (whole cells)
T1 sequence (P29275 1-332): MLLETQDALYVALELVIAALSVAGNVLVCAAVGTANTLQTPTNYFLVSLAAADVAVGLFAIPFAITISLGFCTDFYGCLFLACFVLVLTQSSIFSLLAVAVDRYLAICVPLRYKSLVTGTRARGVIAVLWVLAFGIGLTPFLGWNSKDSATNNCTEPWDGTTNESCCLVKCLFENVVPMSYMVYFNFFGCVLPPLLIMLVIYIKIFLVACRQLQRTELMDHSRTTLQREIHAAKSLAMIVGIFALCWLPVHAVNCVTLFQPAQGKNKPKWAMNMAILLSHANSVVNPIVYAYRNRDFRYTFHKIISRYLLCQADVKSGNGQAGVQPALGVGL
Procedure: […] (Naunyn-Schmied. Arch Pharm. 1998, 357: 1-9). Briefly, the cells are grown adherently and maintained in Dulbecco's Modified Eagles Medium with nutrient mixture F12 (DMEM/F12) without nucleosides, containing 10% fetal calf serum, penicillin (100 U/mL), streptomycin (100 μg/mL), L-glutamine (2 mM) and Geneticin (G418, 0.2 mg/ml) at 37° C. in 5% CO2/95% air. For membrane preparation the culture medium is removed and the cells are washed with phosphate-buffered saline and scraped off T75 flasks in ice-cold hypo tonic buffer (5 mM Tris HCl, 1 mM EDTA, pH 7.4). The cell suspension is homogenized with Polytron, the homogenate is spun for 10 min at 1000×g and the supernatant is then centrifuged for 30 min at 100,000×g. The membrane pellet is suspended in 50 mM Tris HCl buffer (pH 7.4) for A1 adenosine receptors, in 50 mM Tris HCl, 10 mM MgCl2 (pH 7.4) for A2A adenosine receptors, in 50 mM Tris HCl, 10 mM MgCl2, 1 mM EDTA (pH 7.4) for A2B and A3 adenosine receptors.
All new synthesized compounds have been tested to evaluate their affinity to human A1, A2A, A2B and A3 adenosine receptors. […] Pharmacol., 2000, 57: 968-975). Non-specific binding is determined in the presence of 10 μM of CHA and this is always ≦10% of the total binding. […] recombinant A2A adenosine receptors is performed using a suspension of membranes (50 μg of protein/assay) and at least 6-8 different concentrations of studied antagonists for an incubation time of 60 min at 4° C. Non-specific binding is determined in the presence of 1 μM ZM 241385 and is about 20% of total binding. […] Non-specific binding is defined as binding in the presence of 1 μM MRE 3029F20 and is about 25% of total binding. […] Non-specific binding is defined as binding in the presence of 1 μM MRE 3008F20 and is about 25% of total binding. Bound and free radioactivity are separated by filtering the assay mixture through Whatman GF/B glass fiber filters using a Micro-Mate 196 cell harvester (Packard Instrument Co.). The filter bound radioactivity is counted on a Top Count (efficiency 57%) with Micro-Scint 20.
(§1) The protein concentration is determined according to a Bio-Rad method (Bradford, Anal Biochem. 1976, 72: 248-254) with bovine albumin as a standard reference. Inhibitory binding constant, Ki, values are calculated from those of IC50 according to Cheng & Prusoff equation (Biochem. Pharmacol 1973, 22: 3099-3108): Ki=IC50/(1+[C*]/KD*) where [C*] is the concentration of the radioligand and KD* its dissociation constant. A weighted non linear least-squares curve fitting program LIGAND (Munson et al., Anal. Biochem 1980, 107: 220-239) is used for computer analysis of inhibition experiments Data are expressed as geometric mean with 95% confidence limits in parentheses. Examples of Animal Models

[2] = biological target: T1, human A2B adenosine receptors; test: cAMP assay in CHO cells expressing human A2B adenosine receptors (antagonism of NECA-induced cAMP); type: cell-based; settings: antagonism of NECA (100 nM)-induced cAMP, geometric mean (95% confidence limits), read-out: IC50 hA2B (cAMP assay)
Procedure: Measurement of Cyclic AMP Levels in CHO Cells Transfected with Human A2B Adenosine Receptors
CHO cells transfected with human A2B adenosine receptors are washed with phosphate-buffered saline, diluted trypsine and centrifuged for 10 min at 200 g. The pellet containing the CHO cells (1×10^6 cells/assay) is suspended in 0.5 mL of incubation mixture: NaCl 150 mM, KCl 2.7 mM, NaH2PO4 0.37 mM, MgSO4 1 mM, CaCl2 1 mM, Hepes 5 mM, MgCl2 10 mM, glucose 5 mM, pH 7.4 at 37° C. Then 2.0 IU/mL adenosine deaminase and 0.5 mM 4-(3-butoxy-4-methoxybenzyl)-2-imidazolidinone (Ro 20-1724) as phosphodiesterase inhibitor are added and preincubated for 10 min a shaking bath at 37° C. The potency of antagonists studied are determined by antagonism of NECA (100 nM)-induced stimulation of cyclic AMP levels. The reaction is terminated by the addition of cold 6% thrichloroacetic acid (TCA). The TCA suspension is centrifuged at 2000 g for 10 min at 4° C. and the supernatant is extracted four times with water saturated diethyl ether. The final aqueous solution is tested for cyclic AMP levels by a competition protein binding assay. Samples of cyclic AMP standard ([…]) are added to each test tube containing the incubation buffer (trizma base 0.1 M, aminophylline 8.0 mM, 2-mercaptoethanol 6.0 mM (pH 7.4) and [^3H]cyclic AMP in a total volume of 0.5 mL. The binding protein previously prepared from beef adrenals, is added to the samples previously incubated at 4° C. for 150 min, and after the addition of charcoal are centrifuged at 2000 g for 10 min. The clear supernatant is counted with 4 mL of Atomlight liquid scintillator and counted in a Tri Carb Packard 2500 TR scintillation counter.
as §1

[3] = biological target: T2, human A1 adenosine receptors (Homo sapiens, UniProt P30542); test: Displacement of [3H]DPCPX binding at human A1 adenosine receptors expressed in CHO cells; settings: [3H]DPCPX displacement, n = 3-6, geometric mean (95% confidence limits), read-out: Ki hA1
T2 construct: expressed in transfected cells; host or cells: CHO cells (membranes)
T2 sequence (P30542 1-326): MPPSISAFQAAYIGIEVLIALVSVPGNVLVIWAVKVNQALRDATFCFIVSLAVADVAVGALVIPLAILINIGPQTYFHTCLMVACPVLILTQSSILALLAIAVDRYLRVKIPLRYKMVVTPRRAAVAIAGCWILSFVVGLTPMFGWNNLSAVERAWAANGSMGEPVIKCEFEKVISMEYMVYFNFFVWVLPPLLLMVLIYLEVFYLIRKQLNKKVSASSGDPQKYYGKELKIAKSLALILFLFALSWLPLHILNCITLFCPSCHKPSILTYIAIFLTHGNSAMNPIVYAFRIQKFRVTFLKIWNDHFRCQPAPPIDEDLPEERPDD
Procedure: (§2) The human adenosine receptors have been transfected in CHO cells according with the method previously described by Klotz et al. (Naunyn-Schmied. Arch Pharm. 1998, 357: 1-9). Briefly, the cells are grown adherently and maintained in Dulbecco's Modified Eagles Medium with nutrient mixture F12 (DMEM/F12) without nucleosides, containing 10% fetal calf serum, penicillin (100 U/mL), streptomycin (100 μg/mL), L-glutamine (2 mM) and Geneticin (G418, 0.2 mg/ml) at 37° C. in 5% CO2/95% air. For membrane preparation the culture medium is removed and the cells are washed with phosphate-buffered saline and scraped off T75 flasks in ice-cold hypo tonic buffer (5 mM Tris HCl, 1 mM EDTA, pH 7.4). The cell suspension is homogenized with Polytron, the homogenate is spun for 10 min at 1000×g and the supernatant is then centrifuged for 30 min at 100,000×g. The membrane pellet is suspended in 50 mM Tris HCl buffer (pH 7.4) for A1 adenosine receptors, in 50 mM Tris HCl, 10 mM MgCl2 (pH 7.4) for A2A adenosine receptors, in 50 mM Tris HCl, 10 mM MgCl2, 1 mM EDTA (pH 7.4) for A2B and A3 adenosine receptors.
(§3) All new synthesized compounds have been tested to evaluate their affinity to human A1, A2A, A2B and A3 adenosine receptors. Displacement experiments of [^3H]-DPCPX to CHO cells transfected with the human recombinant A1 adenosine receptors are performed for 120 min at 25° C. incubating diluted membranes (50 μg of protein/assay) and at least 6-8 different concentrations of examined antagonists (Varani et al., Mol. Pharmacol., 2000, 57: 968-975). Non-specific binding is determined in the presence of 10 μM of CHA and this is always ≦10% of the total binding. Binding of [^3H]-ZM 241385 to CHO cells transfected with the human recombinant A2A adenosine receptors is performed using a suspension of membranes (50 μg of protein/assay) and at least 6-8 different concentrations of studied antagonists for an incubation time of 60 min at 4° C. Non-specific binding is determined in the presence of 1 μM ZM 241385 and is about 20% of total binding. Competition binding experiments of [^3H]-MRE 2029F20 to CHO cells transfected with the human recombinant A2B adenosine receptors are carried out incubating for 120 min at 4° C. diluted membranes (50 μg of protein/assay) and at least 6-8 different concentrations of examined compounds. Non-specific binding is defined as binding in the presence of 1 μM MRE 3029F20 and is about 25% of total binding. Competition binding experiments of [^3H]-MRE 3008F20 to CHO cells transfected with the human recombinant A3 adenosine receptors^5 are carried out incubating for 120 min at 4° C. diluted membranes (50 μg of protein/assay) and at least 6-8 different concentrations of examined ligands. Non-specific binding is defined as binding in the presence of 1 μM MRE 3008F20 and is about 25% of total binding. Bound and free radioactivity are separated by filtering the assay mixture through Whatman GF/B glass fiber filters using a Micro-Mate 196 cell harvester (Packard Instrument Co.). The filter bound radioactivity is counted on a Top Count (efficiency 57%) with Micro-Scint 20.
as §1

[4] = biological target: T3, human A2A adenosine receptors (Homo sapiens, UniProt P29274); test: Displacement of [3H]ZM241385 binding at human A2A adenosine receptors expressed in CHO cells; settings: [3H]ZM241385 displacement, n = 3-6, geometric mean (95% confidence limits), read-out: Ki hA2A
T3 construct: expressed in transfected cells; host or cells: CHO cells (membranes)
T3 sequence (P29274 whole entry): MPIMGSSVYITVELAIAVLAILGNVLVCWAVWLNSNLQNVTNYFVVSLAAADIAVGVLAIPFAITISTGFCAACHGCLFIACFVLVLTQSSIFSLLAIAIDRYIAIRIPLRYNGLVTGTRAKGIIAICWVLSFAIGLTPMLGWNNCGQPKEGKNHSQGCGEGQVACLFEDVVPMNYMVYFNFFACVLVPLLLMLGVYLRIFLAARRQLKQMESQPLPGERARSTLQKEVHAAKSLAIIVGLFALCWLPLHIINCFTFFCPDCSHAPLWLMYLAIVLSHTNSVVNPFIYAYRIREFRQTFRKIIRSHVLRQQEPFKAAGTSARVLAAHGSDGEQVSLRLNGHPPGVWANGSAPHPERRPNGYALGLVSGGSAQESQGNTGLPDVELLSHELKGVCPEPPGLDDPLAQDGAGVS
Procedure: as §2, §3, §1

Ki [1] | IC50 [2] | melting point | Ki [3] | Ki [4] | Compound
35 nM | 156 nM | 270 to 273 °C |  |  | CCCn1c(=O)c2[nH]c(-c3cc(C)n(CC(=O)Nc4ccc(Br)cc4)n3)nc2n(CCC)c1=O [Example 3, 2-[3-(2,6-Dioxo-1,3-dipropyl-2,3,6,7-tetrahydro-1H-purin-8-yl)-5-methyl-pyrazol-1-yl]-N-(4-bromophenyl)acetamide]
7 nM | 43 nM | 261 to 265 °C |  |  | CCCn1c(=O)c2[nH]c(-c3cc(C)n(CC(=O)Nc4ccc(Cl)cc4)n3)nc2n(CCC)c1=O [Example 4, 2-[3-(2,6-Dioxo-1,3-dipropyl-2,3,6,7-tetrahydro-1H-purin-8-yl)-5-methyl-pyrazol-1-yl]-N-(4-chlorophenyl)-acetamide]
 | > 1000 nM | 256 to 257 °C | > 1000 nM | > 1000 nM | CCCn1c(=O)c2[nH]c(-c3cc(CC)n(CC(=O)Nc4ccc(Cl)cc4)n3)nc2n(CCC)c1=O [Example 9]
 | > 1000 nM | > 300 °C | > 1000 nM | > 1000 nM | CCCn1c(=O)c2[nH]c(-c3cc(C)n(CC(=O)Nc4ccc(N(C)C)cc4)n3)nc2n(CCC)c1=O [Example 11, 2-[3-(2,6-Dioxo-1,3-dipropyl-2,3,6,7-tetrahydro-1H-purin-8-yl)-5-methyl-pyrazol-1-yl]-N-(4-dimethylaminophenyl)-acetamide]
 | > 1000 nM | > 300 °C | > 1000 nM | > 1000 nM | CCCn1c(=O)c2[nH]c(-c3cc(C)n(CC(=O)Nc4cccc5ccccc45)n3)nc2n(CCC)c1=O [Example 13, 2-[3-(2,6-Dioxo-1,3-dipropyl-2,3,6,7-tetrahydro-1H-purin-8-yl)-5-methyl-pyrazol-1-yl]-N-(naphthalen-1-yl)-acetamide]
 | > 1000 nM | 296 to 297 °C | > 1000 nM | > 1000 nM | CCCn1c(=O)c2[nH]c(-c3nn(CC(=O)Nc4ccc(Cl)cc4)c(C)c3I)nc2n(CCC)c1=O [Example 20, 2-[4-Iodo-3-(2,6-dioxo-1,3-dipropyl-2,3,6,7-tetrahydro-1H-purin-8-yl)-5-methyl-pyrazol-1-yl]-N-(4-chlorophenyl)-acetamide]
